# Measured values as given in patent publication US11447460B2, “Compounds and compositions for treating conditions associated with NLRP activity” (Novartis AG, priority 2016, dated 2022).
# System: IL-1β production in PMA-differentiated THP-1 cells
# Assay: IL-1β production in PMA-differentiated THP-1 cells stimulated with gramicidin (hTHP-1 assay, 2% bovine serum; Bioassays 1 and 2)
# Type: cell-based, human
# Details: Homo sapiens, THP-1; hTHP-1 assay containing 2% bovine serum; Table 12, by Example #; read-out: Average IC50 of compounds in hTHP-1 assay
# Procedure: IL-1β Production in PMA-Differentiated THP-1 Cells Stimulated with Gramicidin.
# Cell culture-THP-1 cells were purchased from the American Type Culture Collection and sub-cultured according to instructions from the supplier. Prior to experiments, cells were cultured in RPMI 1640 containing 10% heat inactivated FBS, penicillin (100 units/ml) and streptomycin (100 μg/ml), and maintained in log phase prior to experimental setup. Prior to the experiment THP-1 were treated with PMA (Phorbol 12-myristate 13-acetate) (10 μg/ml) for 24 hours. The day of the experiment the media was removed and attaching cells were treated with trypsin for 2 minutes, cells were then collected, washed with PBS (phosphate buffer saline), spin down, resuspended in 2% heat inactivated FBS with RPMI at a concentration of 1×10^6 cells/ml, and 100 ul was plated in a 96 well plate. Cells were incubated with compounds for 1 hours and then stimulated with Gramicidin (5 μM) (Enzo) for 2 hours. Cell free supernatant was collected and the production of IL-1β was evaluated by ELISA. Compounds were dissolved in dimethyl sulfoxide (DMSO) and added to the culture medium to achieve desired concentration (e.g. 100, 30, 10, 3, 1, 0.3 or 0.1 μM). A vehicle only control was run concurrently with each experiment. Final DMSO concentration was 1%.
# THP-1 cells were purchased from the American Type Culture Collection and sub-cultured according to instructions from the supplier. Prior to experiments, cells were cultured in complete RPMI 1640 (containing 10% heat inactivated FBS, penicillin (100 units/ml) and streptomycin (100 μg/ml)), and maintained in log phase prior to experimental setup. Prior to the experiment THP-1 were treated with PMA (Phorbol 12-myristate 13-acetate) (20 ng/ml) for 16-18 hours. On the day of the experiment the media was removed and adherent cells were detached with trypsin for 5 minutes. Cells were then harvested, washed with complete RPMI 1640, spun down, resuspended in RPMI 1640 (containing 2% heat inactivated FBS, penicillin (100 units/ml) and streptomycin (100 μg/ml). The cells were plated in a 384-well plate at a density of 50,000 cells/well (final assay volume 50 μl). Compounds were dissolved in dimethyl sulfoxide (DMSO) and added to the culture medium to achieve desired concentration (e.g. 100, 33, 11, 3.7, 1.2, 0.41, 0.14, 0.046, 0.015, 0.0051, 0.0017 μM). Cells were incubated with compounds for 1 hour and then stimulated with gramicidin (5 μM) (Enzo) for 2 hours. Cell free supernatant was collected and the production of IL-10 was evaluated by HTRF (cisbio). A vehicle only control was run concurrently with each experiment. Final DMSO concentration was 0.38%.
# Compounds tested with protocols 1 and 2 provided IC50 values that are within the variability of the assay.
# Tables 12 and 13 show the biological activity of compounds in hTHP-1 assay containing 2% bovine serum: <1 μM=“++++”; ≥1 and <5 μM=“+++”; ≥5 and <15 μM=“++”; ≥15 and <60 μM=“+”.
row,IC50 [µM],Structure (SMILES)
1,15 to 60,"CC1(c2ccc(F)c(S(=O)(=O)NC(=O)Cc3c4c(c(F)c5c3CCC5)CCC4)c2)OCCO1 [Example 57, 2-(8-fluoro-1,2,3,5,6,7-hexahydros-indacen-4-yl)-N-(2-fluoro-5-(2-methyl-1,3-dioxolan-2-yl)phenylsulfonyl)acetamide]"
2,1 to 5,"CC(C)c1cc(F)cc(C(C)C)c1CC(=O)NS(=O)(=O)c1ccc(S(C)(=O)=O)cc1 [Example 58, 2-(4-fluoro-2,6-diisopropylphenyl)-N-(4-(methylsulfonyl)phenylsulfonyl)acetamide]"
3,15 to 60,"CC(C)c1cc(F)cc(C(C)C)c1CC(=O)NS(=O)(=O)c1cccc(S(C)(=O)=O)c1 [Example 59, 2-(4-fluoro-2,6-diisopropylphenyl)-N-(3-(methylsulfonyl)phenylsulfonyl)acetamide]"
4,5 to 15,"CC(C)c1cc(Cl)cc(C(C)C)c1CC(=O)NS(=O)(=O)c1ccn(C(C)C)n1 [Example 61, 2-(4-chloro-2,6-diisopropylphenyl)-N-(1-isopropyl-1H-pyrazol-3-ylsulfonyl)acetamide]"
5,5 to 15,"CC(C)c1cc(F)cc(C(C)C)c1CC(=O)NS(=O)(=O)c1ccn(C(C)C)n1 [Example 62, 2-(4-fluoro-2,6-diisopropylphenyl)-N-(1-isopropyl-1H-pyrazol-3-ylsulfonyl)acetamide]"
6,5 to 15,"CC(C)c1cccc(C(C)C)c1CC(=O)NS(=O)(=O)c1cc(C(C)(C)O)n(-c2ccccc2)n1 [Example 63, 2-(2,6-diisopropylphenyl)-N-(5-(2-hydroxypropan-2-yl)-1-phenyl-1H-pyrazol-3-ylsulfonyl)acetamide]"
7,1 to 5,"CC(C)c1cc(F)cc(C(C)C)c1CC(=O)NS(=O)(=O)c1cc(C(C)(C)O)n(-c2ccccc2)n1 [Example 64, 2-(4-fluoro-2,6-diisopropylphenyl)-N-(5-(2-hydroxypropan-2-yl)-1-phenyl-1H-pyrazol-3-ylsulfonyl)acetamide]"
8,5 to 15,"CC(C)c1cc(C#N)cc(C(C)C)c1CC(=O)NS(=O)(=O)c1cc(C(C)(C)O)n(-c2ccccc2)n1 [Example 65, 2-(4-cyano-2,6-diisopropylphenyl)-N-(5-(2-hydroxypropan-2-yl)-1-phenyl-1H-pyrazol-3-ylsulfonyl)acetamide]"
9,15 to 60,"CC(C)c1cccc(C(C)C)c1CC(=O)NS(=O)(=O)c1cc(C(C)(C)O)n(C)n1 [Example 66, 2-(2,6-diisopropylphenyl)-N-(5-(2-hydroxypropan-2-yl)-1-methyl-1H-pyrazol-3-ylsulfonyl)acetamide]"
10,1 to 5,"CC(C)c1cc(F)cc(C(C)C)c1CC(=O)NS(=O)(=O)c1cc(C(C)(C)O)n(C)n1 [Example 67, 2-(4-fluoro-2,6-diisopropylphenyl)-N-(5-(2-hydroxypropan-2-yl)-1-methyl-1H-pyrazol-3-ylsulfonyl)acetamide]"
11,5 to 15,"CC(C)c1cc(C#N)cc(C(C)C)c1CC(=O)NS(=O)(=O)c1cc(C(C)(C)O)n(C)n1 [Example 68, 2-(4-cyano-2,6-diisopropylphenyl)-N-(5-(2-hydroxypropan-2-yl)-1-methyl1H-pyrazol-3-ylsulfonyl)acetamide]"
12,15 to 60,"CC(C)(O)c1cnc(S(=O)(=O)NC(=O)Cc2c3c(c(F)c4c2CCC4)CCC3)s1 [Example 69, 2-(8-fluoro-1,2,3,5,6,7-hexahydros-indacen-4-yl)-N-(5-(2-hydroxypropan-2-yl)thiazol-2-ylsulfonyl)acetamide]"
13,< 1,"CC(C)c1cc(Cl)cc(C(C)C)c1CC(=O)NS(=O)(=O)c1ncc(C(C)(C)O)s1 [Example 70, 2-(4-chloro-2,6-diisopropylphenyl)-N-(5-(2-hydroxypropan-2-yl)thiazol-2-ylsulfonyl)acetamide]"
14,1 to 5,"CC(C)c1ccc(F)c(C(C)C)c1CC(=O)NS(=O)(=O)c1ncc(C(C)(C)O)s1 [Example 71, 2-(3-fluoro-2,6-diisopropylphenyl)-N-(5-(2-hydroxypropan-2-yl)thiazol-2-ylsulfonyl)acetamide]"
15,1 to 5,"CC(C)c1cc(C(F)(F)F)cc(C(C)C)c1CC(=O)NS(=O)(=O)c1ncc(C(C)(C)O)s1 [Example 72, 2-(2,6-diisopropyl-4-(trifluoromethyl)phenyl)-N-(5-(2-hydroxypropan-2-yl)thiazol-2-ylsulfonyl)acetamide]"
16,1 to 5,"COC(C)(C)c1cnc(S(=O)(=O)NC(=O)Cc2c(C(C)C)cc(F)cc2C(C)C)s1 [Example 73, 2-(4-fluoro-2,6-diisopropylphenyl)-N-(5-(2-methoxypropan-2-yl)thiazol-2-ylsulfonyl)acetamide]"
17,5 to 15,"COC(C)(C)c1cnc(S(=O)(=O)NC(=O)Cc2c(C(C)C)cc(C#N)cc2C(C)C)s1 [Example 74, 2-(4-cyano-2,6-diisopropylphenyl)-N-(5-(2-methoxypropan-2-yl)thiazol-2-ylsulfonyl)acetamide]"
18,< 1,"CC(C)c1cc(F)cc(C(C)C)c1CC(=O)NS(=O)(=O)c1cnc(C(C)(C)O)s1 [Example 75, 2-(4-fluoro-2,6-diisopropylphenyl)-N-(2-(2-hydroxypropan-2-yl)thiazol-5-ylsulfonyl)acetamide]"
19,< 1,"CC(C)c1cc(F)c(F)c(C(C)C)c1CC(=O)NS(=O)(=O)c1ncc(C(C)(C)O)s1 [Example 76, 2-(3,4-difluoro-2,6-diisopropylphenyl)-N-(5-(2-hydroxypropan-2-yl)thiazol-2-ylsulfonyl)acetamide]"
20,1 to 5,"CC(C)c1c(F)cc(F)c(C(C)C)c1CC(=O)NS(=O)(=O)c1ncc(C(C)(C)O)s1 [Example 77, 2-(3,5-difluoro-2,6-diisopropylphenyl)-N-(5-(2-hydroxypropan-2-yl)thiazol-2-ylsulfonyl)acetamide]"
21,5 to 15,"CC(C)(O)c1cnc(S(=O)(=O)NC(=O)Cc2c(C3CC3)cccc2C2CC2)s1 [Example 78, 2-(2,6-dicyclopropylphenyl)-N-(5-(2-hydroxypropan-2-yl)thiazol-2-ylsulfonyl)acetamide]"
22,15 to 60,"CC(C)c1cc(Cl)cc(C(F)(F)F)c1CC(=O)NS(=O)(=O)c1ncc(C(C)(C)O)s1 [Example 79, 2-(4-chloro-2-isopropyl-6-(trifluoromethyl)phenyl)-N-(5-(2-hydroxypropan-2-yl)thiazol-2-ylsulfonyl)acetamide]"
23,5 to 15,"CC(C)c1cccc(C2CC2)c1CC(=O)NS(=O)(=O)c1ncc(C(C)(C)O)s1 [Example 80, 2-(2-cyclopropyl-6-isopropylphenyl)-N-(5-(2-hydroxypropan-2-yl)thiazol-2-ylsulfonyl)acetamide]"
24,15 to 60,"CC(C)c1cc(F)cc(C(C)C)c1CC(=O)NS(=O)(=O)c1nc(C(C)(C)O)cs1 [Example 81, 2-(4-fluoro-2,6-diisopropylphenyl)-N-(4-(2-hydroxypropan-2-yl)thiazol-2-ylsulfonyl)acetamide]"
25,15 to 60,"CC(C)c1cc(C#N)cc(C(C)C)c1CC(=O)NS(=O)(=O)c1nc(C(C)(C)O)cs1 [Example 82, 2-(4-cyano-2,6-diisopropylphenyl)-N-(4-(2-hydroxypropan-2-yl)thiazol-2-ylsulfonyl)acetamide]"
26,< 1,"CC(C)c1c(F)c(Cl)c(F)c(C(C)C)c1CC(=O)NS(=O)(=O)c1ncc(C(C)(C)O)s1 [Example 83, 2-(4-chloro-3,5-difluoro-2,6-diisopropylphenyl)-N-(5-(2-hydroxypropan-2-yl)thiazol-2-ylsulfonyl)acetamide]"
27,5 to 15,"CC(C)c1cnc(S(=O)(=O)NC(=O)Cc2c(C(C)C)cc(F)cc2C(C)C)s1 [Example 84, 2-(4-fluoro-2,6-diisopropylphenyl)-N-(5-isopropylthiazol-2-ylsulfonyl)acetamide]"
28,1 to 5,"CC(C)c1cc(OC(F)(F)F)cc(C(C)C)c1CC(=O)NS(=O)(=O)c1ncc(C(C)(C)O)s1 [Example 85, 2-(2,6-diisopropyl-4-(trifluoromethoxy)phenyl)-N-(5-(2-hydroxypropan-2-yl)thiazol-2-ylsulfonyl)acetamide]"
29,5 to 15,"CCc1cc(F)cc(CC)c1CC(=O)NS(=O)(=O)c1ncc(C(C)(C)O)s1 [Example 86, 2-(2,6-diethyl-4-fluorophenyl)-N-(5-(2-hydroxypropan-2-yl)thiazol-2-ylsulfonyl)acetamide]"
